Tests used:
[1] = system: Alopecurus myosuroides; assay: Pre-emergence herbicidal effect; assay type: in vivo; settings: scored visually after 3 weeks
Summary of the method: (§1)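 Using soil-surface application before emergence, the compound was delivered in a water volume equating to 600 to 800 L/ha. Plants grew in a greenhouse for 3 weeks; activity was then rated visually in percent against untreated plants, with 100% for plants killed.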

[2] = system: Stellaria media; assay: Pre-emergence herbicidal effect; assay type: in vivo; settings: scored visually after 3 weeks
Summary of the method: as §1

[3] = system: Setaria viridis; assay: Pre-emergence herbicidal effect; assay type: in vivo; settings: scored visually after 3 weeks
Summary of the method: as §1

[4] = system: Veronica persica; assay: Pre-emergence herbicidal effect; assay type: in vivo; settings: scored visually after 3 weeks
Summary of the method: as §1

[5] = system: Polygonum convolvulus; assay: Pre-emergence herbicidal effect; assay type: in vivo; settings: scored visually after 3 weeks
Summary of the method: as §1

[6] = system: Echinochloa crus-galli; assay: Pre-emergence herbicidal effect; assay type: in vivo; settings: scored visually after 3 weeks
Summary of the method: as §1

[7] = system: Avena fatua; assay: Pre-emergence herbicidal effect; assay type: in vivo; settings: scored visually after 3 weeks
Summary of the method: as §1

[8] = system: Amaranthus retroflexus; assay: Pre-emergence herbicidal effect; assay type: in vivo; settings: scored visually after 3 weeks
Summary of the method: as §1

[9] = system: Abutilon theophrasti; assay: Pre-emergence herbicidal effect; assay type: in vivo; settings: Dosage 320 g/ha, scored visually after 3 weeks
Summary of the method: as §1

[10] = system: Viola tricolor; assay: Pre-emergence herbicidal effect; assay type: in vivo; settings: scored visually after 3 weeks
Summary of the method: as §1

[11] = system: Matricaria inodora; assay: Pre-emergence herbicidal effect; assay type: in vivo; settings: scored visually after 3 weeks
Summary of the method: as §1

[12] = system: Stellaria media; assay: Post-emergence herbicidal effect; assay type: in vivo; settings: assessed visually after about 3 weeks vs untreated controls
Summary of the method: (§2)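 Greenhouse weeds grown in sandy loam were sprayed at the one-leaf stage, 2–3 weeks after sowing, with WP or EC formulations in 600–800 L/ha water plus 0.2% wetting agent. Damage was scored visually after about 3 weeks as percent activity relative to untreated controls, where 100% means the plants died.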

[13] = system: Setaria viridis; assay: Post-emergence herbicidal effect; assay type: in vivo; settings: assessed visually after about 3 weeks vs untreated controls
Summary of the method: as §2

[14] = system: Ipomoea purpurea; assay: Post-emergence herbicidal effect; assay type: in vivo; settings: 320 g/ha, assessed visually after about 3 weeks vs untreated controls
Summary of the method: as §2

[15] = system: Echinochloa crus-galli; assay: Post-emergence herbicidal effect; assay type: in vivo; settings: assessed visually after about 3 weeks vs untreated controls
Summary of the method: as §2

[16] = system: Abutilon theophrasti; assay: Post-emergence herbicidal effect; assay type: in vivo; settings: assessed visually after about 3 weeks vs untreated controls
Summary of the method: as §2

[17] = system: Viola tricolor; assay: Post-emergence herbicidal effect; assay type: in vivo; settings: assessed visually after about 3 weeks vs untreated controls
Summary of the method: as §2

[18] = system: Veronica persica; assay: Post-emergence herbicidal effect; assay type: in vivo; settings: assessed visually after about 3 weeks vs untreated controls
Summary of the method: as §2

[19] = system: Polygonum convolvulus; assay: Post-emergence herbicidal effect; assay type: in vivo; settings: assessed visually after about 3 weeks vs untreated controls
Summary of the method: as §2

[20] = system: Amaranthus retroflexus; assay: Post-emergence herbicidal effect; assay type: in vivo; settings: assessed visually after about 3 weeks vs untreated controls
Summary of the method: as §2

[21] = logP (HCOOH); assay type: physicochemical; settings: HCOOH
From the text: Table 2 (physicochemical characterization of selected synthesis examples)

[22] = system: Lolium multiflorum; assay: Post-emergence herbicidal effect; assay type: in vivo; settings: 320 g/ha, assessed visually after about 3 weeks vs untreated controls
Summary of the method: as §2

[23] = system: Lolium multiflorum; assay: Pre-emergence herbicidal effect; assay type: in vivo; settings: scored visually after 3 weeks
Summary of the method: as §1

[24] = system: Matricaria inodora; assay: Post-emergence herbicidal effect; assay type: in vivo; settings: assessed visually after about 3 weeks vs untreated controls
Summary of the method: as §2

Row | Structure (SMILES) | ALOMY pre-emergence efficacy (herbicidal activity) ([1]; Dosage 320 g/ha) [%] | STEME pre-emergence efficacy (herbicidal activity) ([2]; Dosage 80 g/ha) [%] | STEME pre-emergence efficacy (herbicidal activity) ([2]; Dosage 320 g/ha) [%] | SETVI pre-emergence efficacy (herbicidal activity) ([3]; Dosage 80 g/ha) [%] | SETVI pre-emergence efficacy (herbicidal activity) ([3]; Dosage 320 g/ha) [%] | VERPE pre-emergence efficacy (herbicidal activity) ([4]; Dosage 80 g/ha) [%] | VERPE pre-emergence efficacy (herbicidal activity) ([4]; Dosage 320 g/ha) [%] | POLCO pre-emergence efficacy (herbicidal activity) ([5]; Dosage 320 g/ha) [%] | ECHCG pre-emergence efficacy (herbicidal activity) ([6]; Dosage 80 g/ha) [%] | ECHCG pre-emergence efficacy (herbicidal activity) ([6]; Dosage 320 g/ha) [%] | AVEFA pre-emergence efficacy (herbicidal activity) ([7]; Dosage 320 g/ha) [%] | AMARE pre-emergence efficacy (herbicidal activity) ([8]; Dosage 80 g/ha) [%] | AMARE pre-emergence efficacy (herbicidal activity) ([8]; Dosage 320 g/ha) [%] | VIOTR pre-emergence efficacy (herbicidal activity) ([10]; Dosage 80 g/ha) [%] | VIOTR pre-emergence efficacy (herbicidal activity) ([10]; Dosage 320 g/ha) [%] | MATIN pre-emergence efficacy (herbicidal activity) ([11]; Dosage 80 g/ha) [%] | MATIN pre-emergence efficacy (herbicidal activity) ([11]; Dosage 320 g/ha) [%] | post-emergence efficacy STEME ([12]; 320 g/ha) [%] | post-emergence efficacy ECHCG ([15]; 320 g/ha) [%] | post-emergence efficacy VIOTR ([17]; 320 g/ha) [%] | also measured
1 | Cc1cc2c(s1)CCCC2Nc1nc(N)c([S+](C)[O-])c(C(C)F)n1 (racemic) [compound 309] | 90 | 100 | 100 | 90 | 100 | 100 | 100 | 100 | 60 | 90 | 90 | 90 | 100 | 100 | 100 | 90 | 100 |  |  |  | POLCO pre-emergence efficacy (herbicidal activity) ([5]; Dosage 80 g/ha): 100%; ABUTH pre-emergence efficacy (herbicidal activity) [9]: 80%
2 | Cc1cc2c(s1)CCCC2Nc1nc(N)c(Br)c(C(F)F)n1 (racemic) [compound 314] | 90 | 100 | 100 | 100 | 100 |  | 100 | 100 | 70 | 90 | 60 | 90 |  | 100 | 100 | 90 |  | 50 | 60 | 60 | post-emergence efficacy SETVI ([13]; 320 g/ha): 60%; post-emergence efficacy PHBPU [14]: 90%; post-emergence efficacy ABUTH ([16]; 320 g/ha): 70%; ALOMY pre-emergence efficacy (herbicidal activity) ([1]; Dosage 80 g/ha): 60%; POLCO pre-emergence efficacy (herbicidal activity) ([5]; Dosage 80 g/ha): 100%; ABUTH pre-emergence efficacy (herbicidal activity) [9]: 60%
3 | CS(=O)(=O)c1cnc(NC2CCCc3cc(Cl)sc32)nc1N (racemic) [compound 53] |  | 80 | 100 |  | 100 | 100 | 100 | 90 | 100 | 100 |  | 100 | 100 | 100 | 100 | 100 | 100 | 100 | 90 | 100 | post-emergence efficacy STEME ([12]; 80 g/ha): 100%; post-emergence efficacy SETVI ([13]; 320 g/ha): 100%; post-emergence efficacy VERPE ([18]; 80 g/ha): 90%; post-emergence efficacy VERPE ([18]; 320 g/ha): 90%; post-emergence efficacy PHBPU [14]: 90%; post-emergence efficacy POLCO ([19]; 80 g/ha): 80%; post-emergence efficacy POLCO ([19]; 320 g/ha): 90%; post-emergence efficacy ECHCG ([15]; 80 g/ha): 80%; post-emergence efficacy AMARE ([20]; 80 g/ha): 90%; post-emergence efficacy AMARE ([20]; 320 g/ha): 100%; post-emergence efficacy VIOTR ([17]; 80 g/ha): 90%; logP (HCOOH) [21]: solid; logP (HCOOH): 2.41; 1H NMR (CDCl3, 400 MHZ, δ in ppm): 1.75-2.00 (m,
4 | Nc1nc(NC2CCc3ccsc32)ncc1C(F)(F)F (racemic) [compound 29] | 100 | 100 | 100 | 90 | 100 |  | 90 |  |  | 100 | 100 | 60 | 100 | 100 | 100 | 100 | 100 | 100 | 100 | 90 | post-emergence efficacy STEME ([12]; 80 g/ha): 90%; post-emergence efficacy SETVI ([13]; 80 g/ha): 90%; post-emergence efficacy SETVI ([13]; 320 g/ha): 100%; post-emergence efficacy POLCO ([19]; 320 g/ha): 90%; post-emergence efficacy LOLMU [22]: 80%; post-emergence efficacy VIOTR ([17]; 80 g/ha): 80%; LOLMU pre-emergence efficacy (herbicidal activity) ([23]; Dosage 320 g/ha): 100%
5 | Nc1nc(NC2CCc3sccc32)ncc1C(F)(F)F (racemic) [compound 215] | 90 | 100 | 100 | 90 | 100 | 100 | 100 | 100 | 80 | 100 | 70 | 100 | 100 | 80 | 90 | 100 | 100 |  |  |  | LOLMU pre-emergence efficacy (herbicidal activity) ([23]; Dosage 320 g/ha): 100%; AVEFA pre-emergence efficacy (herbicidal activity) ([7]; Dosage 80 g/ha): 70%
6 | CC(=O)c1cnc(NC2CCCc3sc(C)cc32)nc1N (racemic) [compound 150] | 100 | 100 | 100 | 100 | 100 | 70 | 100 | 100 | 90 | 100 |  | 100 | 100 | 100 | 100 |  |  | 100 | 80 | 90 | post-emergence efficacy STEME ([12]; 80 g/ha): 80%; post-emergence efficacy SETVI ([13]; 320 g/ha): 90%; post-emergence efficacy VERPE ([18]; 80 g/ha): 100%; post-emergence efficacy VERPE ([18]; 320 g/ha): 100%; post-emergence efficacy PHBPU [14]: 90%; post-emergence efficacy LOLMU [22]: 90%; post-emergence efficacy AMARE ([20]; 80 g/ha): 80%; post-emergence efficacy AMARE ([20]; 320 g/ha): 90%; post-emergence efficacy ABUTH ([16]; 80 g/ha): 80%; post-emergence efficacy ABUTH ([16]; 320 g/ha): 80%; post-emergence efficacy VIOTR ([17]; 80 g/ha): 80%; post-emergence efficacy MATIN ([24]; 80 g/ha): 80%; post-emergence efficacy MATIN ([24]; 320 g/ha): 90%; logP (HCOOH) [21]: oily; logP (HCOOH): 1.51; 1H NMR (CDCl3, 400 MHZ, δ in ppm): 1.85 (m, 3H, 3H of; ALOMY pre-emergence efficacy (herbicidal activity) ([1]; Dosage 80 g/ha): 90%; LOLMU pre-emergence efficacy (herbicidal activity) ([23]; Dosage 80 g/ha): 100%; LOLMU pre-emergence efficacy (herbicidal activity) ([23]; Dosage 320 g/ha): 100%; ABUTH pre-emergence efficacy (herbicidal activity) [9]: 70%
7 | Cc1cc2c(o1)CCCC2Nc1ncc(S(C)(=O)=O)c(N)n1 (racemic) [compound 62] | 60 | 90 | 100 |  | 80 |  | 90 |  |  | 80 |  |  | 100 | 90 | 100 | 80 | 100 | 90 | 40 | 100 | post-emergence efficacy LOLMU [22]: 80%; post-emergence efficacy AMARE ([20]; 80 g/ha): 80%; post-emergence efficacy AMARE ([20]; 320 g/ha): 90%; logP (HCOOH) [21]: oily; logP (HCOOH): 1.78; 1H NMR (CDCl3, 400 MHZ, δ in ppm): 1.70-2.00 (m, 4H,; LOLMU pre-emergence efficacy (herbicidal activity) ([23]; Dosage 320 g/ha): 50%; ABUTH pre-emergence efficacy (herbicidal activity) [9]: 90%

Source: patent publication US10251395B2, “Substituted furano-/thienocycloalkylamino-2-pyrimidine derivatives and use thereof for controlling undesired plant growth” (Bayer CropScience Aktiengesellschaft, priority 2015, dated 2019)
